What was measured:
[1] = pKa was determined; type: physicochemical
[2] = target: T1, Estrogen receptor (Homo sapiens) (UniProt P03372); test: Inhibition of [3H]estradiol binding to human estrogen receptor alpha
T1 sequence (whole entry): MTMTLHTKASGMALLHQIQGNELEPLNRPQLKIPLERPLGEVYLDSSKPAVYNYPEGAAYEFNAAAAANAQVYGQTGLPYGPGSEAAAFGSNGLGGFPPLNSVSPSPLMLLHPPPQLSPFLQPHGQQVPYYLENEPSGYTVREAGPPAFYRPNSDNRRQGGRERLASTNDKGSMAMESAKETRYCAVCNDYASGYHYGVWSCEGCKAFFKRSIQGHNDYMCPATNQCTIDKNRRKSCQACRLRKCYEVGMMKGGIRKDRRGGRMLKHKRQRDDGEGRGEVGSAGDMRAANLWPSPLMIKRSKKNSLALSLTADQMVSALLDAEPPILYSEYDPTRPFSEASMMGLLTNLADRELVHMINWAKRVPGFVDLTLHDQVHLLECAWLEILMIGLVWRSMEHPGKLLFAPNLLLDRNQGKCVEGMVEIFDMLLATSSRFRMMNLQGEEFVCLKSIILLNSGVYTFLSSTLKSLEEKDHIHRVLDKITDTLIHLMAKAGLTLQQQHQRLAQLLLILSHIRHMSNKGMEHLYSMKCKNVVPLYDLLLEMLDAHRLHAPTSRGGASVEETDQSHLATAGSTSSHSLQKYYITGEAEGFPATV

[3] = target: Estrogen receptor beta (Homo sapiens) (UniProt Q92731); test: Inhibition of [3H]estradiol binding to human estrogen receptor beta
Sequence of Estrogen receptor beta (Homo sapiens) (Q92731 whole entry): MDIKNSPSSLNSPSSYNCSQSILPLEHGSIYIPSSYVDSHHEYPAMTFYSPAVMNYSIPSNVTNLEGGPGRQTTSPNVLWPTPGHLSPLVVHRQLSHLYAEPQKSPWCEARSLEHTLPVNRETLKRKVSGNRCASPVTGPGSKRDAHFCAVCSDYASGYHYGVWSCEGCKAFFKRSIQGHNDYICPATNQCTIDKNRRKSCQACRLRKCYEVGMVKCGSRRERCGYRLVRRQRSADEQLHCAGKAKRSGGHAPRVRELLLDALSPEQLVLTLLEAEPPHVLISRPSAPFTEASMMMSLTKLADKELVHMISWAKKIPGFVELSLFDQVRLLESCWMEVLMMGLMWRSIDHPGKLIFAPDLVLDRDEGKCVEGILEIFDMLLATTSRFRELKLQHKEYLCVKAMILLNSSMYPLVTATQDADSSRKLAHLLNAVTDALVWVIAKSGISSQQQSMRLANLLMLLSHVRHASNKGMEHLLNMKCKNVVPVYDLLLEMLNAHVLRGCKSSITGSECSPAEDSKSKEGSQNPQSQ

Row | pKa [1] | relative binding affinity (RBA) [2] | relative binding affinity (RBA) [3] | SMILES
1 | 3.9 | – | – | CCC(c1ccccc1)N(CC)c1ncc(O)cn1 (stereo not drawn)
2 | – | 2.2 | 40 | CC(c1ccc(O)cc1)C(C)c1ccc(O)cc1 (stereo not drawn)
